Laboratory results: PMC6556873, “Rapid Covalent-Probe Discovery by Electrophile-Fragment Screening” (Journal of the American Chemical Society, 2019)
Where two headings read alike, the source gives them in different places.

How the values were obtained:
in vitro [1] = test: in vitro; set-up: species or system HB2, HEK293; details: human, ccd841 cells
in vitro [2] = test: in vitro; set-up: species or system HB2, CCD841; details: human, hek293 cells
NUDT7 = target: T1, NUDT7 (Homo sapiens, UniProt P0C024); set-up: Intact protein LC/MS covalent labelling, fragments in pools of five, 200 uM each, 4 °C; details: 24 h, 4 °C, pool of five; 200 µM; covalent
T1 construct: residues 14-235, E. coli, pNIC28-Bsa4, N-terminal His6 tag removed by TEV, construct 26672 Da
T1 sequence (P0C024 14-235): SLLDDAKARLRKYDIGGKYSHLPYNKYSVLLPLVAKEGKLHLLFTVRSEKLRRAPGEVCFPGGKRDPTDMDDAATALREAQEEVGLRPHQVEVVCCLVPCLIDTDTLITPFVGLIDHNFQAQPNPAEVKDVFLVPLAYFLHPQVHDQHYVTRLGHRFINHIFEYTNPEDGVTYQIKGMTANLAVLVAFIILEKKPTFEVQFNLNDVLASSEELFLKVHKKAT

BSA = target: T2, BSA (Bos taurus, UniProt P02769); set-up: Intact protein LC/MS covalent labelling, fragments in pools of five, 200 uM each, 4 °C; details: 24 h, 4 °C, pool of five; 200 µM; covalent
T2 construct: gene ALB
T2 sequence (P02769 whole entry, the tested form may be a part): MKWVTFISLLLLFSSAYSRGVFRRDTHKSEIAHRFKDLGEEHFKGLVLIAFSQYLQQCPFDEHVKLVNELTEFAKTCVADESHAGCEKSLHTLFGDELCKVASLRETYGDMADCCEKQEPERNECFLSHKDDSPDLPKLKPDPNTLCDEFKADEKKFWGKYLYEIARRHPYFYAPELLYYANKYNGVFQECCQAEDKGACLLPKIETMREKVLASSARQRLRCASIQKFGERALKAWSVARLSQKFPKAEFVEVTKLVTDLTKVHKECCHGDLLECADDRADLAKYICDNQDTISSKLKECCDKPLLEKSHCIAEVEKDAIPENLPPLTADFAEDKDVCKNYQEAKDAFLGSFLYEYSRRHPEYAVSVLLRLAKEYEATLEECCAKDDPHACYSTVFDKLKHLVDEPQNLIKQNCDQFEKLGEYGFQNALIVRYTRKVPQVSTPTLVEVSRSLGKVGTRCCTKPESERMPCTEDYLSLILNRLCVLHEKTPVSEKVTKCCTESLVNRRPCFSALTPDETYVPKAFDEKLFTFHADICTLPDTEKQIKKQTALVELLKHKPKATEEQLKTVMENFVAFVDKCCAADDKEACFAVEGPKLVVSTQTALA

PCAF = target: T3, PCAF (Homo sapiens, UniProt Q92831); set-up: Intact protein LC/MS covalent labelling, fragments in pools of five, 200 uM each, 4 °C; details: 24 h, 4 °C, pool of five; 200 µM; covalent
T3 construct: gene KAT2B
T3 sequence (Q92831 whole entry, the tested form may be a part): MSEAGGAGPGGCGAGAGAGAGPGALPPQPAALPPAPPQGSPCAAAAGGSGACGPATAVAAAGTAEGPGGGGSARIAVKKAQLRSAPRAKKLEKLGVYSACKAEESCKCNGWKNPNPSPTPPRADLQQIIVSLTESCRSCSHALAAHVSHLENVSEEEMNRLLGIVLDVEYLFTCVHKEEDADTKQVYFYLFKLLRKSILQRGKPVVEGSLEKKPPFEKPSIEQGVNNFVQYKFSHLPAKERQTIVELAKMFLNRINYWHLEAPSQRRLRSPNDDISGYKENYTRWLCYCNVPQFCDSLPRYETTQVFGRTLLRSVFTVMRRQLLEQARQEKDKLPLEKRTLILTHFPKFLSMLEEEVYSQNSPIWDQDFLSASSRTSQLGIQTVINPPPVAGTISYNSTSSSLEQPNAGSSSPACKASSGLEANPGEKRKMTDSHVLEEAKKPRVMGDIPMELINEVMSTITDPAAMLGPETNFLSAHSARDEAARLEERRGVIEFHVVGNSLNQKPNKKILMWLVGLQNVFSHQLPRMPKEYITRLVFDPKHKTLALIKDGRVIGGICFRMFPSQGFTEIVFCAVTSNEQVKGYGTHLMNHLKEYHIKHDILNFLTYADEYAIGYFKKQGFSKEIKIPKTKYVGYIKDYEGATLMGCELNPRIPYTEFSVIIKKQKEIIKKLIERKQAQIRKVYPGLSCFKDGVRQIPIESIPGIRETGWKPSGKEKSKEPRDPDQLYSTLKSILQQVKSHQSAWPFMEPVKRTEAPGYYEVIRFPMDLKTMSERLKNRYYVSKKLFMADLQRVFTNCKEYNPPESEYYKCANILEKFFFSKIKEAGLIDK

OTUB2 (OTUB2A) = target: T4, OTUB2 (OTUB2A) (Homo sapiens, UniProt Q96DC9); set-up: Intact protein LC/MS covalent labelling, fragments in pools of five, 200 uM each, 4 °C; details: 24 h, 4 °C, pool of five; 200 µM; covalent
T4 construct: full length residues 1-234, E. coli BL21(DE3)-R3, His tag removed by TEV, construct 27312 Da
T4 sequence (Q96DC9 1-234): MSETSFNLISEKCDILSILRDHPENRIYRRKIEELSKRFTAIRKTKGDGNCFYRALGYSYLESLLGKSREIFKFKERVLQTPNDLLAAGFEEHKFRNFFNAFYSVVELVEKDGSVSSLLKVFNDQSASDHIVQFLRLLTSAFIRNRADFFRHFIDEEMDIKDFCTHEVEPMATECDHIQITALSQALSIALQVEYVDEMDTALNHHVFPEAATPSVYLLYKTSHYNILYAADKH

in vitro [3] = test: in vitro; set-up: species or system CCD841, HEK293; details: human, hb2 cells, read-out: HB-2 Cells Viability (%)

NUDT7 (NUDT7)	BSA (BSA)	PCAF (PCAF)	OTUB2 (OTUB2 (OTUB2A))	SMILES	viability at 48 h, 10 µM (in vitro [1])	viability at 48 h, 10 µM (in vitro [2])	viability at 48 h, 10 µM (in vitro [3])
0	0	0	0	C=CC(=O)Nc1nc(-c2ccccc2C)cs1 [PCM-0102845]	106%	93.4%	107%
0.24	0	0	0	O=C(CCl)Nc1ccc([N+](=O)[O-])cc1Br [PCM-0102848]	68.4%	47%	54.1%
0	0	0	0	C=CC(=O)N1CCCC(S(=O)(=O)N2CCOCC2)C1 (stereo not shown) [PCM-0102849]	97.2%	97.9%	107%
0.1	0	0	0.23	COC(=O)c1cccc(NC(=O)CCl)c1O [PCM-0102851]	116%	108%	106%
0	0	0	0	O=C(CCl)Nc1cccnc1N1CCCC1 [PCM-0102852]	100%	115%	106%
0.07	0	0	0	CC(C)(C)C(=O)NNC(=O)CCl [PCM-0102855]	93.1%	87.8%	98.2%
0	0	0	0	C=CC(=O)Nc1ccccc1F [PCM-0102856]	119%	84%	106%
0	0	0	0	Cc1ccc(S(C)(=O)=O)cc1NC(=O)CCl [PCM-0102858]	66.6%	19.2%	58.6%
0	0	0	0	O=C(CCl)Nc1ccccc1N1CCCCC1 [PCM-0102860]	109%	97.5%	111%
0	0.2	0	0	Cn1cccc1C(=O)NC(=O)CCl [PCM-0102863]	112%	92.2%	106%
0.09	0	0	0	CN(Cc1ccsc1)C(=O)CCl [PCM-0102865]	76.1%	34%	49.6%
0.34	0	0	0	O=C(CCl)N(c1ccc(F)cc1)C1C=CS(=O)(=O)C1 (stereo not shown) [PCM-0102868]	33.4%	6.2%	27.9%
0	0	0	0	CN(C(=O)CCl)C1=CCCC1 [PCM-0102869]	110%	101%	111%
0.17	0	0	0	O=C(CCl)N1CCOCC1C1CC1 (stereo not shown) [PCM-0102870]	89.5%	56.7%	80.6%
0.16	0	0	0	Cc1csc(NC(=O)CCl)n1.Cl [PCM-0102872]	94.9%	91.9%	90.4%
0.18	0	0	0	O=C(CCl)Nc1cc(F)cc(F)c1 [PCM-0102874]	58.3%	3.1%	14.3%
0.14	0	0	0.08	N#Cc1ccc(NC(=O)CCl)cc1 [PCM-0102875]	46%	4.3%	36.6%
0	0	0	0	CN(C)C(=O)c1ccc(NC(=O)CCl)cc1 [PCM-0102877]	61.7%	30.5%	67.6%
0	0	0	0.17	Cc1cc(C)c(C(C)NC(=O)CCl)cc1C (stereo not shown) [PCM-0102879]	83.7%	59.6%	87.3%
0	0	0	0.11	COC(=O)C1CN(C(=O)CCl)c2ccccc2O1 (stereo not shown) [PCM-0102880]	96.4%	97.5%	112%
0	0	0	0.39	O=C(CCl)NCC1COc2ccccc2O1 (stereo not shown) [PCM-0102881]	76.2%	56.3%	81%
0	0	0	0	C=CC(=O)NC1CNC(=O)C1 (stereo not shown) [PCM-0102882]	99.1%	97.3%	108%
0	0	0	0	Cc1ccccc1NC(=O)CCl [PCM-0102887]	69.6%	55.1%	90.2%
0	0	0	0	C=CC(=O)N1CCN(C(C)C)c2ccccc2C1 [PCM-0102888]	93.1%	101%	108%
0	0	0	0	Cl.O=C(CCl)N1CCN(c2cnccn2)CC1 [PCM-0102889]	97.2%	94.7%	88.2%
0.25	0	0	0	O=C(CCl)Nc1ccc(Cl)nc1 [PCM-0102891]	33.2%	9%	31.5%
0.34	0	0	0	CN(C(=O)CCl)c1nc2ccccc2s1 [PCM-0102894]	83.6%	87.7%	88.4%
0	0	0	0	CC(=O)Nc1ccc(NC(=O)CCl)c(C(F)(F)F)c1 [PCM-0102895]	91.7%	82%	97.1%
